From publication PMC11220827 (Frontiers in Pharmacology, 2024)
Read-outs that look alike come from different tables or passages of the source.

Tests used:
[1] = system: MCF-7 cells; assay: Transcriptomics (TempO-Seq, BMD analysis) in MCF-7 cells; type: cell-based, human; conditions: for Lowest median BMD, 3 genes passing all filters / Lowest median BMD, >5 genes passing all filters / BMD relating to estrogen effects: MCF-7, 24 h; for Lowest median BMD, 3 genes passing all filters / Lowest median BMD, >5 genes passing all filters: pathway differs per chemical; for BMD relating to estrogen effects: pathway named in the cell
Description: (§1) These differed with respect to the number of genes passing all filters in each pathway (3 versus 5 genes). […] Therefore, we captured pathways which fulfilled both criteria.
(§2) HepG2 (human hepatoblastoma) , MCF-7 (human breast adenocarcinoma) cells supplied by
(§3) Public Health England European Collection of Cell Cultures (ECACC, Salisbury, UK). Differentiated
(§4) HepaRG cells (HPR116, Lot HPR116239 -TA08) were from Biopredic International (Rennes, France).
(§5) Test chemicals were prepared in DMSO as serial dilutions, resulting in concentrations in media of
(§6) biological replicates were treated with the appropriate dose of co mpound for 24 h prior to cell lysis.
(§7) Biospyder human whole genome panel version 1 (https://biospyder.com).
Gene normalization and analysis
(§8) expression values for each probe were normalized by applying DESEQ2 normalization. A pseudo-
(§9) read-count of 1.0 was added to each normalized expression value, and then the values were log2
(§10) transformed . Analyses performed included Gene and Pathway, Dose Response and Network
(§11) monotonic increasing/decreasing trend were those which confirmed to the criteria : William’s trend
(§12) Those genes were then used in categorical (pathway) analysis for the Gene Ontology (GO) terms and
(§13) REACTOME pathways. Significant dose responsive pathways were determined according to : Fisher’s

[2] = Measured plasma concentrations of daidzein from dietary intake; type: in vivo, human; conditions: PoD 10 nM / 3.14 µM
From the text: Daidzein is present in soy-derived foods and is consumed in large amounts in Asian countries.

[3] = target: T1, MAO-A (Rattus norvegicus, UniProt P21396); assay: Pharmacology profiling: MAO-A (antagonist RL); type: binding; conditions: for inhibition at 10 µM: read-out: MAO-A (antagonist RL): % inhibition @10 µM
T1 sequence (P21396 1-526): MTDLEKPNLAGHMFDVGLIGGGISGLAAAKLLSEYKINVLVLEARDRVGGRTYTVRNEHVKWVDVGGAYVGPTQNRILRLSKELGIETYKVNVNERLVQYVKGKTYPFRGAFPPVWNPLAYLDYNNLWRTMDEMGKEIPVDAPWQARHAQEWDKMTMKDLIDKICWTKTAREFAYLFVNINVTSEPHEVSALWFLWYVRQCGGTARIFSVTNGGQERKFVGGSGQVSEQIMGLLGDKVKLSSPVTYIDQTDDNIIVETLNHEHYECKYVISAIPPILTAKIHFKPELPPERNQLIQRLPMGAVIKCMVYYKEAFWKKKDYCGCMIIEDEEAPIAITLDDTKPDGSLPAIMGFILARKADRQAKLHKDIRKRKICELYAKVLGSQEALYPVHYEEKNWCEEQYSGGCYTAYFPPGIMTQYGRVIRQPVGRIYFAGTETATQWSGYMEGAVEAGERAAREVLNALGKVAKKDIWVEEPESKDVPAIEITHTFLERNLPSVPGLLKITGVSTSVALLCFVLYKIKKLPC
From the text: (§14) targets. The list of targets included the original panel of 44 targets (including receptors, ion channels,
(§15) transporters and enzymes) recommended by 4 major pharmaceutical companies as significant
(§16) reasoned to link to pathological effects. Results showing an inhibition or stimulation higher than 50%
(§17) are considered to represent significant effects (i.e. a “hit”).
(§18) and 50% are indicative of weak to moderate effects and results showing an inhibition (or stimulation)
(§19) around the control level. For several targets, additional concentration effect assays were conducted to
(§20) determine the potency (IC50). The concentrations tested (in duplicate) ranged between 30 nM and 100

[4] = target: PDE4D2 (h) (Homo sapiens, UniProt Q08499); assay: Pharmacology profiling: PDE4D2 (h) (phosphodiesterase 4D); type: biochemical; conditions: for inhibition at 10 µM: read-out: PDE4D2 (h) (phosphodiesterase 4D): % inhibition @10 µM
From the text: Cosmetics Europe’s Systemic Toxicity Taskforce (SysTox-TF) has extended the list of targets in an in vitro screen originally described by [Bowes et al. (2012)] to assess the effects of cosmetic chemicals on target molecules. The approach was based on the knowledge that various targets of pharmacological interest have been linked to human adverse drug reactions, and that screening of these has helped the pharma industry in identifying drug candidates with acceptable human safety profiles ([Bowes et al., 2012]; [Scott et al., 2022]). The methods used by the pharma industry were adapted for use in cosmetic chemical NGRA. A final list of 83 target assays were considered suitable for cosmetic chemical safety testing (see Supplementary Materials S1.7). The targets were receptors, ion channels, transporters and enzymes identified by the pharma industry as linked to human adverse drug reactions, supplemented by additional targets that have been reasoned to be linked to systemic toxicities of chemicals in animals. Chemicals that are flagged for a target are tested in follow-up dose-response assays to establish potency of the interaction. […]. [Valentin et al., 2018]; [Dodson et al., 2021]). […].
assay’s reference compound was set to 100%. For antagonist assays, the basal signal (exposure to fixed concentration of agonist only) was set to 100%. Activity of the samples was scaled accordingly, […]
Using these graphs, lowest […]
compound activity for antagonist assays.
S1.7. Pharmacology profiling assays […]
reasoned to link to pathological effects. […]
around the control level. […]
determine the potency (IC50).
Supplementary Table S4 Pharmacology profiling assay panel. […]

[5] = system: Thyroid pathway; design: method as in ToxCast; conditions: ref ToxCast, cited from earlier work; as to Thyroid pathway: Reporter protein Agonist, Call: key: Pos = positive result; Neg = negative result; Inc = uncertain/inconclusive result; as to Thyroid pathway: Reporter protein Antagonist, Call: key: Pos = positive result; Neg = negative result; Inc = uncertain/inconclusive result; as to Thyroid pathway: mRNA induction, Call: key: Pos = positive result; Neg = negative result; Inc = uncertain/inconclusive result
[6] = target: T2, Adenosine A1 (h) (Homo sapiens, UniProt P30542); assay: Pharmacology profiling: Adenosine A1 (h) (antagonist RL); type: binding; conditions: for inhibition at 10 µM: read-out: Adenosine A1 (h) (antagonist RL): % inhibition @10 µM
T2 sequence (P30542 1-326): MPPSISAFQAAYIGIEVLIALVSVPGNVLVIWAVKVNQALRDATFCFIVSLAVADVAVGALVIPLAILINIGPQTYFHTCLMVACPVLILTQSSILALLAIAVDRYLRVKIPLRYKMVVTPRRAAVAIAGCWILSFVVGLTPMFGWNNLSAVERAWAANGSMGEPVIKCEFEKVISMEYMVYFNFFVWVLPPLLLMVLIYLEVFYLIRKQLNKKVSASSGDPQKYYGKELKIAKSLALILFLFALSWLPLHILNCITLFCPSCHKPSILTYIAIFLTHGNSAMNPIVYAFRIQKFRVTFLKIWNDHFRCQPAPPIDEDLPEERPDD
From the text: as §14, §15, §16, §17, §18, §19, §20

[7] = system: U2-OS cells
Description: using the U2-OS based CALUX cytotox bioassay. The cytotoxicity of each test chemical was assessed using the U2-OS based cytotoxicity CALUX bioassay. Concentrations causing >20% reduction of luminescence were considered cytotoxic.
cytotoxicity (relative induction in the cytotoxicity CALUX bioassay > 80%) were used for final
evaluation of analysis results.
induction in the cytotox CALUX bioassay > 80%) were used for final evaluation of analysis results.
All analysis results were expressed in molar (M) final in well.
For the analyses in the presence of rat liver S9, 0.03% (v/v) of PB/BNF induced rat liver
S9 mix (including NADPH and an NADPH-regenerating system) was added to the cells directly after
addition of the compounds, which remained there for the duration of the exposure period (24 h) (van

[8] = system: HepG2 cells; assay: Transcriptomics (TempO-Seq, BMD analysis) in HepG2 cells; type: cell-based, human; conditions: for BMD relating to estrogen effects: pathway named in the cell; for BMD/NOEC, gene pathway deregulation: HepG2 cells
Description: as §1, §2, §3, §4, §5, §6, §7
Gene normalization and analysis
as §8, §9, §10, §11, §12, §13

[9] = system: HepaRG cells; assay: Transcriptomics (TempO-Seq, BMD analysis) in HepaRG cells; type: cell-based; conditions: for BMD/NOEC, gene pathway deregulation: HepaRG cells; for Lowest median BMD, 3 genes passing all filters / Lowest median BMD, >5 genes passing all filters / BMD relating to estrogen effects: HepaRG, 24 h; for Lowest median BMD, 3 genes passing all filters / Lowest median BMD, >5 genes passing all filters: pathway differs per chemical; for BMD relating to estrogen effects: pathway named in the cell
Description: as §1, §2, §3, §4, §5, §6, §7
Gene normalization and analysis
as §8, §9, §10, §11, §12, §13

[10] = target: COX1 (h) (Homo sapiens, UniProt P23219); assay: Pharmacology profiling: COX1 (h); type: biochemical
From the text: as §14, §15, §16, §17, §18, §19, §20

[11] = in vivo; cited from earlier work
[12] = target: Estrogen ERα (h) (Homo sapiens, UniProt P03372); assay: biochemical; conditions: read-out: Estrogen ERα (h) (agonist RL): % inhibition @10 µM
[13] = system: H295R cells
Description: DMSO (1% compound stock in incubation mixture).
was measured on a Berthold luminometer.
Serial dilutions of the compounds were incubated in Tris -buffer (pH 8.0) overnight at 4°C in the
incubation mixture). After incubation, TTR-bound and free T4 were separated on a Bio-Gel P-6DG
column. The eluate was added to assay medium after which TRβ CALUX cells were exposed for 24 h
For this TRβ CALUX exposure, serum-free assay medium was used.
wells plates in assay medium, and exposed for 48h to a serial dilution of the compound in triplicate
exposure, the assay medium was analysed on the ERα and AR CALUX bioassays as described
Changes in hormone levels compared to a vehicle control exposure
Preincubation with rat liver S9 fraction
To assess the effect of metabolism on the activity of the test
compound for these assays, preincubations with rat liver S9 were performed. Compounds (10 μl
DMSO stock solution) were incubated for 0 h (control) or 3 h (test condition) in a total volume of 1
ml TRIS buffer in the presence of 1% (v/v) PB/BNF induced rat liver S9 mix (including NADPH and
an NADPH-regenerating system). After incubation, the reaction was stopped by the addition of ice
cold acetone, and samples were frozen to stimulate protein precipitation. After thawing, the
precipitated protein fraction was subsequently removed by centrifugation. The supernatant, cont aining
the metabolites and any remaining non-metabolised parent compound, was concentrated under a
gentle nitrogen flow. After evaporating to dryness, the sample was taken up in 50 μl DMSO followed
by the addition of 50 μl TRIS buffer. This extract was used for the exposure of the hTPO inhibition,
Relative light units (RLUs) of the CALUX assays were analysed as follows. For agonist assays,
background values (exposure to DMSO only) were subtracted, and the maximum activity of the
resulting in expression of the data as “percentage of maximum reference response”. Graphs were
generated using the statistical software package GraphPad Prism V5.03. Using these graphs, lowest
effect concentrations (LOECs) and PC50 concentrations were determined; LOEC is defined as the
maximum reference compound activity for agonist assays, and 20% of the maximum reference
compound activity for antagonist assays. The PC50 is defined as the concentration where the activity
of the sample equals 50% of the maximum activity of the assay’s reference compound.
the test compound was divided by the amount of estrogens and androgens produced by the solvent
control-exposed cells. A sample was considered ‘active’ if it decreased the hormone production 0.8-

[14] = ref SCCS 2022; cited from earlier work
[15] = HepG2, 24 h, pathway differs per chemical

O=c1c(-c2ccc(O)cc2)coc2cc(O)ccc12 [Daidzein, DAIDZEIN]
Lowest median BMD, 3 genes passing all filters [1]: 0.038 µM
Lowest median BMD, >5 genes passing all filters [1]: 0.084 µM
BMD relating to estrogen effects [1]: 21.3 - response to estrogen ↓ µM
Lowest median BMD (BMD/NOEC, gene pathway deregulation) ([1]; MCF-7 cells): 38 nM
BER, highest measured dietary plasma concentration [2]: 0.003
IC50 [3]: 9.18 µM
inhibition at 10 µM [3]: 49.6%
inhibition at 10 µM [4]: 0.04%
Thyroid pathway: Reporter protein Agonist, Call [5]: Neg
Thyroid pathway: Reporter protein Antagonist, Call [5]: Neg
Thyroid pathway: mRNA induction, Call [5]: Neg
inhibition at 10 µM [6]: 19.9%
Cytotoxicity LOEC, +S9 ([7]; human, 24 h): >−5 Log M
Cytotoxicity LOEC, −S9 ([7]; human, 24 h): >−5 Log M
Lowest median BMD, 3 genes passing all filters [8, 15]: 16.2 µM
Lowest median BMD, >5 genes passing all filters [8, 15]: 30.0 µM
BMD relating to estrogen effects ([8]; HepG2, 24 h): None
BMD/NOEC, gene pathway deregulation [8]: 16.2 µM
BMD/NOEC, gene pathway deregulation [9]: 33.1 µM
Lowest median BMD, 3 genes passing all filters [9]: 33.1 µM
Lowest median BMD, >5 genes passing all filters [9]: 39.3 µM
BMD relating to estrogen effects [9]: None
inhibition at 10 µM ([10]; read-out: COX1 (h): % inhibition @10 µM): 44.7%
Highest measured plasma concentration [11]: 3.14 µM
inhibition at 10 µM [12]: 100%

O=c1c(-c2ccc(O)cc2)coc2cc(O)cc(O)c12 [Genistein, 5,7-DIHYDROXY-3-(4-HYDROXYPHENYL)-4-BENZOPYRONE]
Lowest median BMD, 3 genes passing all filters [1]: 0.0065 µM
Lowest median BMD, >5 genes passing all filters [1]: 0.051 µM
BMD relating to estrogen effects [1]: 60.1 - estrogen 2-hydroxylase activity ↓ µM
inhibition at 10 µM [3]: 86%
IC50 [4]: 0.738 µM
inhibition at 10 µM [4]: 87%
AC50 ([5]; read-out: Thyroid pathway: Reporter protein Antagonist, AC50): 13.1 µM
IC50 [6]: 9.12 µM
inhibition at 10 µM [6]: 53.5%
Steroidogenesis (AR) Testosterone LOEC, +S9 ([13]; +S9 (preincubation with rat liver S9)): −5.7 Log M
LOEC, androgen synthesis (impaired) ([13]; H295R): 3.2 × 10^−6 ± 0 M
Steroidogenesis (AR) Testosterone LOEC, −S9 ([13]; −S9): −5.5 Log M
Cytotoxicity LOEC, +S9 ([7]; +S9 (rat liver)): >−5 Log M
Cytotoxicity LOEC, −S9 ([7]; −S9): >−5 Log M
Lowest median BMD, >5 genes passing all filters [8, 15]: 15.7 µM
BMD relating to estrogen effects ([8]; HepG2, 24 h): 53.8 - Estrogen-dependent gene expression ↓ µM
BMD/NOEC, gene pathway deregulation [8]: 15.7 µM
In vitro Comet assay result [14]: positive, and four were negative
BMD/NOEC, gene pathway deregulation [9]: 0.04 µM
Lowest median BMD, 3 genes passing all filters [9]: 0.040 µM
Lowest median BMD, >5 genes passing all filters [9]: 0.051 µM
BMD relating to estrogen effects [9]: 0.11- Estrogen-dependent gene expression ↑ µM
IC50 [10]: 7.69 µM
